Consider twelve compounds from US12414565B2, “Pyridazine (THIO)amides as fungicidal compounds” (Bayer Aktiengesellschaft, priority 2018, dated 2025).

The test system of one test is Botrytis cinerea. Put plainly: In vivo preventive test on Botrytis cinerea (grey mould). Particulars: 500 ppm of active ingredient, preventive spray on gherkin or cabbage, evaluated 4 to 5 days after inoculation, 100% = no disease, read-out: efficacy. The protocol: (§1) The active ingredients were made soluble and homogenized in a mixture of Dimethyl sulfoxide/Acetone/Tween® 80 and then diluted in water to the desired concentration.
The young plants of gherkin or cabbage were treated by spraying the active ingredient prepared as described above. Control plants were treated only with an aqueous solution of Acetone/Dimethyl sulfoxide/Tween® 80.
After 24 hours, the plants were contaminated by spraying the leaves with an aqueous suspension of Botrytis cinerea spores. The contaminated gherkin plants were incubated for 4 to 5 days at 17° C. and at 90% relative humidity. The contaminated cabbage plants were incubated for 4 to 5 days at 20° C. and at 100% relative humidity.
The test was evaluated 4 to 5 days after the inoculation. 0% means an efficacy which corresponds to that of the control plants while an efficacy of 100% means that no disease was observed.

Test [1] has as its system Colletotrichum lindemuthianum. Kind of test: Colletotrichum lindemuthianum in vitro cell test. Particulars: 144 h, 20 ppm of active ingredient, liquid culture, 6 days incubation, absorbance, read-out: efficacy (inhibition of fungal growth). It counts as cell-based. The protocol: (§2) [table] Fungicides were solubilized in DMSO and the solution used to prepare the required range of concentrations. The final concentration of DMSO used in the assay was ≤1%. A spore suspension of C. lindemuthianum was prepared and diluted to the desired spore density. Fungicides were evaluated for their ability to inhibit spores germination and mycelium growth in liquid culture assay. The compounds were added in the desired concentration to the culture medium with spores. After 6 days incubation, fungi-toxicity of compounds was determined by spectrometric measurement of mycelium growth. Inhibition of fungal growth was determined by comparing the absorbance values in wells containing the fungicides with the absorbance in control wells without fungicides.

Another test deals with Alternaria brassicae. Put plainly: In vivo preventive test on Alternaria brassicae (leaf spot on radish or cabbage). To be noted: 144 h, 500 ppm of active ingredient, preventive spray on radish or cabbage, evaluated 6 days after inoculation, 100% = no disease, read-out: efficacy. As for the experimental part: as §1
The young plants of radish or cabbage were treated by spraying the active ingredient prepared as described above. Control plants were treated only with an aqueous solution of Acetone/Dimethyl sulfoxide/Tween® 80.
After 24 hours, the plants were contaminated by spraying the leaves with an aqueous suspension of Alternaria brassicae spores. The contaminated radish or cabbage plants were incubated for 6 days at 20° C. and at 100% relative humidity.
The test was evaluated 6 days after the inoculation. 0% means an efficacy which corresponds to that of the control plants while an efficacy of 100% means that no disease was observed.

In a further test the test system is Alternaria alternata. Put plainly: Alternaria alternata in vitro cell test. It counts as cell-based. Particulars: 120 h, 20 ppm of active ingredient, liquid culture, 5 days incubation, absorbance, read-out: efficacy (inhibition of fungal growth). As for the experimental part:
as §2, with “was <1%.” for “was ≤1%.”, “of A. alternata” for “of C. lindemuthianum”, “inhibit spore” for “inhibit spores”, “After 5” for “After 6”

In the next test the test system is Sphaerotheca fuliginea. Put plainly: In vivo preventive test on Sphaerotheca fuliginea (powdery mildew on cucurbits). To be noted: Podosphaera fuliginea, 192 h; 500 ppm of active ingredient; preventive spray on gherkin; evaluated 8 days after inoculation; 100% = no disease; read-out: efficacy. As for the experimental part:
as §1
The young plants of gherkin were treated by spraying the active ingredient prepared as described above. Control plants were treated only with an aqueous solution of Acetone/Dimethyl sulfoxide/Tween® 80.
After 24 hours, the plants were contaminated by spraying the leaves with an aqueous suspension of Sphaerotheca fuliginea spores. The contaminated gherkin plants were incubated for 8 days at 20° C. and at 70-80% relative humidity.
The test was evaluated 8 days after the inoculation. 0% means an efficacy which corresponds to that of the control plants while an efficacy of 100% means that no disease was observed.

A further test has as its system Pyrenophora teres. Kind of test: In vivo preventive test on Pyrenophora teres (net blotch on barley). To be noted: 240 h, 500 ppm of active ingredient, preventive spray on barley, evaluated 10 days after inoculation, 100% = no disease, read-out: efficacy. As for the experimental part:
as §1
The young plants of barley were treated by spraying the active ingredient prepared as described above. Control plants were treated only with an aqueous solution of Acetone/Dimethyl sulfoxide/Tween® 80.
After 24 hours, the plants were contaminated by spraying the leaves with an aqueous suspension of Pyrenophora teres spores. The contaminated barley plants were incubated for 48 hours at 20° C. and at 100% relative humidity and then for 8 days at 20° C. and at 70-80% relative humidity.
The test was evaluated 10 days after the inoculation. 0% means an efficacy which corresponds to that of the control plants while an efficacy of 100% means that no disease was observed.

Each structure is given as a SMILES string.

As for `CCc1c(Cl)nnc(Oc2cccc(C(F)(F)F)c2)c1C(=O)NCC(F)(F)c1ccc(Cl)cc1` [I-254, 6-chloro-N-[2-(4-chlorophenyl)-2,2-difluoro-ethyl]-5-ethyl-3-[3-(trifluoromethyl)phenoxy]pyridazine-4-carboxamide], the pest or weed control at 500 ppm in the test with Botrytis cinerea, in the test with Alternaria brassicae and in the test on Sphaerotheca fuliginea was 90 to 100% throughout. The inhibition at 20 ppm (in test [1]; in the test on Alternaria alternata) was 90 to 100% in each case.
As for `Cc1ccc(CCNC(=S)c2cc(C)nnc2Oc2cccc(C(F)(F)F)c2)c(C)c1` [I-094, N-[2-(2,4-dimethylphenyl)ethyl]-6-methyl-3-[3-(trifluoromethyl)phenoxy]pyridazine-4-carbothioamide], the pest or weed control at 500 ppm with Botrytis cinerea lay within 90 to 100%; with Alternaria brassicae it was 90 to 100%; with Pyrenophora teres, 80 to 89%; with Sphaerotheca fuliginea, 90 to 100%. Moreover, the values for the inhibition at 20 ppm (in test [1]; with Alternaria alternata) were 90 to 100% and 80 to 89%, respectively.
In the case of `Cc1ccc(C(F)(F)CNC(=O)c2c(Oc3cccc(C(F)(F)F)c3)nnc(Cl)c2NC2COC2)c(C)c1` [I-408, 6-chloro-N-[2-(2,4-dimethylphenyl)-2,2-difluoro-ethyl]-5-(oxetan-3-ylamino)-3-[3-(trifluoromethyl)phenoxy]pyridazine-4-carboxamide], the pest or weed control at 500 ppm in the test on Botrytis cinerea lay within 90 to 100%; in the test with Alternaria brassicae it was 90 to 100%; in the test with Pyrenophora teres, 70 to 79%; in the test on Sphaerotheca fuliginea it was 90 to 100%. Also, the inhibition at 20 ppm (in test [1]; with Alternaria alternata) was 90 to 100% throughout.
On to `Cc1ccc(C(F)(F)CNC(=O)c2cc(Cl)nnc2Oc2cccc(C(F)(F)F)c2)c(C)c1` [I-014, 6-chloro-N-[2-(2,4-dimethylphenyl)-2,2-difluoro-ethyl]-3-[3-(trifluoromethyl)phenoxy]pyridazine-4-carboxamide], for which the pest or weed control at 500 ppm in the test on Botrytis cinerea is 90 to 100%; with Alternaria brassicae, 90 to 100%; with Pyrenophora teres, 70 to 79%; with Sphaerotheca fuliginea, 90 to 100%. The inhibition at 20 ppm (in test [1]; in the test with Alternaria alternata) was 90 to 100% throughout.
On to `O=C(NCC(F)(F)c1ccc(Br)cc1Cl)c1cc(Cl)nnc1Oc1cccc(F)c1F` [I-530, N-[2-(4-bromo-2-chloro-phenyl)-2,2-difluoro-ethyl]-6-chloro-3-(2,3-difluorophenoxy)pyridazine-4-carboxamide], for which the pest or weed control at 500 ppm in the test on Botrytis cinerea lay within 90 to 100%; in the test on Alternaria brassicae, 90 to 100%; in the test with Pyrenophora teres, 70 to 79%; with Sphaerotheca fuliginea it was 90 to 100%. Moreover, the inhibition at 20 ppm (in test [1]; with Alternaria alternata) was 90 to 100% throughout.
For `CC(=O)c1cc(C(=O)NCC(F)c2ccc(Br)cc2Cl)c(Oc2cccc(C(F)(F)F)c2)nn1` (racemic) [I-605, 6-acetyl-N-[rac-2-(4-bromo-2-chloro-phenyl)-2-fluoro-ethyl]-3-[3-(trifluoromethyl)phenoxy]pyridazine-4-carboxamide], the pest or weed control at 500 ppm in the test with Botrytis cinerea fell in the range of 70 to 79%; with Alternaria brassicae, 90 to 100%; in the test on Pyrenophora teres, 70 to 79%; in the test on Sphaerotheca fuliginea, 90 to 100%. For the same compound, the inhibition at 20 ppm (in test [1]; with Alternaria alternata) was 90 to 100% each time.
With `Cc1ccc(C(F)(F)CNC(=O)c2cc(C)nnc2Oc2cccc(C3CCC3)c2)c(C)c1` [I-564, 3-(3-cyclobutylphenoxy)-N-[2-(2,4-dimethylphenyl)-2,2-difluoro-ethyl]-6-methyl-pyridazine-4-carboxamide], the pest or weed control at 500 ppm in the test with Botrytis cinerea was 90 to 100%; with Alternaria brassicae, 80 to 89%; in the test on Sphaerotheca fuliginea, 80 to 89%. Besides, the inhibition (commonly the percentage by which the read-out fell short of the control) at 20 ppm is 70 to 79% in test [1] and 90 to 100% with Alternaria alternata.
Regarding `Cc1ccc(C(F)(F)CNC(=O)c2cc(I)nnc2Oc2cccc(C(F)(F)F)c2)c(C)c1` [I-461, N-[2-(2,4-dimethylphenyl)-2,2-difluoro-ethyl]-6-iodo-3-[3-(trifluoromethyl)phenoxy]pyridazine-4-carboxamide], the pest or weed control at 500 ppm in the test with Botrytis cinerea was 90 to 100%; with Alternaria brassicae, 90 to 100%; in the test on Pyrenophora teres, 80 to 89%; with Sphaerotheca fuliginea it was 90 to 100%. In addition, the inhibition at 20 ppm (in test [1]; in the test with Alternaria alternata) was 90 to 100% in each case.
`COC(=O)N(CC(F)(F)c1ccc(C)cc1C)C(=O)c1cc(Cl)nnc1Oc1cccc(C(F)(F)F)c1` [I-335, methyl N-[6-chloro-3-[3-(trifluoromethyl)phenoxy]pyridazine-4-carbonyl]-N-[2-(2,4-dimethylphenyl)-2,2-difluoro-ethyl]carbamate]: the results for the pest or weed control at 500 ppm in the test with Botrytis cinerea, with Alternaria brassicae and with Sphaerotheca fuliginea were 90 to 100%, 80 to 89% and 80 to 89%, respectively. Also, the figures for the inhibition at 20 ppm (in test [1]; in the test on Alternaria alternata) were 80 to 89% and 70 to 79%, respectively.
For the compound `CSc1cc(C(=O)NCC(F)(F)c2ccc(C)cc2C)c(Oc2cccc(C(F)(F)F)c2)nn1` [I-767, N-[2-(2,4-dimethylphenyl)-2,2-difluoro-ethyl]-6-methylsulfanyl-3-[3-(trifluoromethyl)phenoxy]pyridazine-4-carboxamide], the pest or weed control at 500 ppm was 90 to 100% in the test with Botrytis cinerea, 90 to 100% with Alternaria brassicae, 80 to 89% with Pyrenophora teres and 90 to 100% in the test with Sphaerotheca fuliginea. Moreover, the inhibition at 20 ppm (in test [1]; with Alternaria alternata) was 90 to 100% throughout.
With `Cc1cc(C2CC2)ccc1C(F)(F)CNC(=O)c1cc(Cl)nnc1Oc1cccc(C(F)(F)F)c1` [I-240, 6-chloro-N-[2-(4-cyclopropyl-2-methyl-phenyl)-2,2-difluoro-ethyl]-3-[3-(trifluoromethyl)phenoxy]pyridazine-4-carboxamide], the pest or weed control at 500 ppm with Botrytis cinerea fell in the range of 90 to 100%; in the test with Alternaria brassicae it was 90 to 100%; in the test with Pyrenophora teres it was 70 to 79%; in the test with Sphaerotheca fuliginea, 90 to 100%. Besides, the inhibition at 20 ppm (in test [1]; in the test on Alternaria alternata) was 90 to 100% in each case.
As to `Cc1ccc(C(F)(F)CNC(=O)c2c(Oc3cccc(C(F)(F)F)c3)nnc(Cl)c2I)c(C)c1` [I-020, 6-chloro-N-[2-(2,4-dimethylphenyl)-2,2-difluoro-ethyl]-5-iodo-3-[3-(trifluoromethyl)phenoxy]pyridazine-4-carboxamide], the pest or weed control at 500 ppm with Botrytis cinerea was in the range of 90 to 100%; in the test with Alternaria brassicae, 90 to 100%; in the test with Pyrenophora teres, 80 to 89%; with Sphaerotheca fuliginea, 90 to 100%. Moreover, the inhibition at 20 ppm (in test [1]; in the test with Alternaria alternata) was 90 to 100% throughout.
